The results in this text go back to ChEMBL document CHEMBL1138929, “Development of peptidic dopamine transporter inhibitors via aromatic modification-mediated conformational restriction” (J Med Chem, 2006).

Starred links: 1 amine or outer side, 2 acyl side, 3 side chain; linkers in the order of their positions; H or OH if unused. Non-standard residues stand in square brackets, D forms with d. Residues, ends and D or L forms follow the SMILES beside them. *: point of attachment. X1 = O=C([C@H](Cc1ccc(O)c(Cc2ccccc2)c1)N[*:1])[*:2]; Bpa = N[C@@H](Cc1ccc(C(=O)c2ccccc2)cc1)C(=O)O; Bip = N[C@@H](Cc1ccc(-c2ccccc2)cc1)C(=O)O; 1Nal = N[C@@H](Cc1cccc2ccccc12)C(=O)O; 2Nal = N[C@@H](Cc1ccc2ccccc2c1)C(=O)O; Bn = c1ccc(C*)cc1

For data set [1], the target named is T1, Sodium-dependent dopamine transporter (Rattus norvegicus, UniProt P23977). The experiment in a line: Inhibition of rat DAT-mediated [3H]dopamine uptake in CHO cells. The class given is cell-based.
The subject of data set [2] is Mus musculus. The data set is described as follows: Effect on place preference in BALB/c mouse at 20 mg/kg, sc measured as pre and procondition time difference. The class given is functional. As to conditions: route subcutaneous.
Data set [3] deals with Mus musculus. The experiment in a line: Effect on cocaine-induced place preference in BALB/c mouse at 10 mg/kg, sc measured as pre and procondition time difference. The class given is functional. The note with it: route subcutaneous.
Data set [4] relates to Mus musculus. The data set is described as follows: Effect on 10 mg/kg cocaine-induced place preference in BALB/c mouse at 10 mg/kg, sc measured as pre and procondition time difference. The data set is classed as functional.
The target of data set [5] is Sodium- and chloride-dependent GABA transporter 1 (Mus musculus, UniProt P31648). The data set is described as follows: Inhibition of mouse GAT1-mediated gamma-aminobutyric acid uptake in CHO cells. The data set is classed as cell-based.
Data set [6] addresses Sodium-dependent noradrenaline transporter, Rattus norvegicus. The experiment in a line: Inhibition of rat NET-mediated norepinephrine uptake in CHO cells.
Data set [7] deals with T1, Sodium-dependent dopamine transporter. The experiment in a line: Inhibition of [3H]WIN-35428 binding to rat DAT expressed in D8 cells. The data set is classed as cell-based.
Data set [8] addresses Sodium-dependent serotonin transporter (Rattus norvegicus, UniProt P31652). The experiment in a line: Inhibition of rat SERT-mediated serotonin uptake in CHO cells. The class given is cell-based.
Data set [9] addresses Sodium-dependent noradrenaline transporter (Rattus norvegicus) (UniProt P31652). The data set is described as follows: Inhibition of rat NET-mediated norepinephrine uptake in CHO cells. As to conditions: cho.
In data set [10] the test system is Mus musculus. The experiment in a line: Effect on place preference in BALB/c mouse at 10 mg/kg measured as pre and procondition time difference. The class given is functional.
Substrate in data set [11]: CC(c1ccc(-c2ccc(C[C@H](N)C(=O)O)cc2)cc1)[C@H](N)C(=O)N[C@@H](Cc1ccc(O)cc1)C(=O)N[C@H](C(=O)N1CCC[C@H]1C(=O)N[C@H](C(=O)NCC(=O)O)[C@@H](C)OCc1ccccc1)[C@@H](C)O
As to conditions: Rattus norvegicus; D8; 250 nM.
Description: Inhibition of rat DAT-mediated [3H]dopamine accumulation in D8 cells at 250 nM

Substrate in data set [12]: CC(c1ccc(-c2ccc(C[C@H](N)C(=O)O)cc2)cc1)[C@H](N)C(=O)N[C@@H](Cc1ccc(O)cc1)C(=O)N[C@H](C(=O)N1CCC[C@H]1C(=O)N[C@H](C(=O)NCC(=O)O)[C@@H](C)OCc1ccccc1)[C@@H](C)O
Description: Inhibition of rat DAT-mediated [3H]dopamine accumulation in D8 cells at 600 nM
The note with it: Rattus norvegicus; D8; 600 nM.

Sodium-dependent serotonin transporter, sequence (P31652 whole entry): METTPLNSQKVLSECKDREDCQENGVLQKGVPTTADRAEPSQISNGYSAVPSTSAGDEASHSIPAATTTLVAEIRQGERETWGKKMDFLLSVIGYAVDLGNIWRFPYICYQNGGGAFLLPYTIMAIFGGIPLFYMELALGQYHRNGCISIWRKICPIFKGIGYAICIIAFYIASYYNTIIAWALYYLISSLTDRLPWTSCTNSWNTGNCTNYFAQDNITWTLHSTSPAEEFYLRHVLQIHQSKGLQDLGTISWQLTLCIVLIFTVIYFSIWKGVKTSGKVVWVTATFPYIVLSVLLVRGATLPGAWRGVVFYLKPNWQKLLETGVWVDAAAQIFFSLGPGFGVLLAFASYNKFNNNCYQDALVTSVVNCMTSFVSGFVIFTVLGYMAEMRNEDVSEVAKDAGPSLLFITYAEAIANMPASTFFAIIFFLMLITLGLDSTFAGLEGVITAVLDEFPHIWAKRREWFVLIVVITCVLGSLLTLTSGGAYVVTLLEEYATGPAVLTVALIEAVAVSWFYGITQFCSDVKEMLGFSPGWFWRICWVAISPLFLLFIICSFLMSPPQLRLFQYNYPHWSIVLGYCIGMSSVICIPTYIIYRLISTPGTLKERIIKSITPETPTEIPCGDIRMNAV
Sodium-dependent noradrenaline transporter (Rattus norvegicus), sequence (P31652 whole entry, looked up): as the sequence (P31652 whole entry) above

For orientation: IC50 means the concentration at which inhibition is half-maximal. With `C[C@@H](O)[C@H](NC(=O)[C@H](CCCCN)NC(=O)[C@@H]1CCCN1C(=O)[C@@H](NC(=O)[C@H](Cc1ccc(O)c(Cc2ccccc2)c1)NC(=O)[C@@H](N)Cc1ccc(-c2ccccc2)cc1)[C@@H](C)O)C(=O)O` (H-[Bip][X1]TPKT-OH), in [1] (cho), half-maximal inhibition (IC50) was put at 10 µM.

With `C[C@@H](O)[C@H](NC(=O)[C@H](Cc1ccc(O)cc1)NC(=O)[C@@H](N)Cc1ccc(-c2ccccc2)cc1)C(=O)N1CCC[C@H]1C(=O)N[C@H](C(=O)NCC(=O)O)[C@@H](C)OCc1ccccc1` (H-[Bip]YTPT(Bn)G-OH) [listing 1 of 2 here], the values for the Activity with Mus musculus [2], with Mus musculus [3] and with Mus musculus [4] were -16 s, 61 s and 78 s, respectively.

On to `C[C@@H](O)[C@H](NC(=O)[C@H](Cc1ccc(O)cc1)NC(=O)[C@@H](N)Cc1cccc2ccccc12)C(=O)N1CCC[C@H]1C(=O)N[C@@H](CCCCN)C(=O)N[C@H](C(=O)NCC(=O)O)[C@@H](C)OCc1ccccc1` (H-[1Nal]YTPKT(Bn)G-OH), for which the concentration for half-maximal inhibition (IC50) in data set [1] is 199 µM.

Turning to `C[C@@H](O)[C@H](NC(=O)[C@H](Cc1ccc(O)cc1)NC(=O)[C@@H](N)Cc1ccc(-c2ccccc2)cc1)C(=O)N1CCC[C@H]1C(=O)N[C@H](C(=O)NCC(=O)O)[C@@H](C)OCc1ccccc1` (H-[Bip]YTPT(Bn)G-OH) [listing 2 of 2 here], the IC50 is above 1000 µM in data set [5]; 0.3 µM in data set [1]; 90 µM in [6]; 0.494 µM in data set [7]; 110 µM in data set [8]. Molecule `C[C@H](NC(=O)[C@@H]1CCCN1C(=O)[C@@H](NC(=O)[C@H](Cc1ccc(O)cc1)NC(=O)[C@@H](N)Cc1ccc(-c2ccccc2)cc1)[C@@H](C)O)C(=O)N[C@H](C(=O)NCC(=O)O)[C@@H](C)OCc1ccccc1` (H-[Bip]YTPAT(Bn)G-OH) registered an IC50 in data set [1] (cho) of 1.7 µM.

As for `C[C@H](NC(=O)[C@@H](NC(=O)[C@H](Cc1ccc(O)cc1)NC(=O)[C@@H](N)Cc1ccc(-c2ccccc2)cc1)[C@@H](C)O)C(=O)N[C@@H](CCCCN)C(=O)N[C@H](C(=O)NCC(=O)O)[C@@H](C)OCc1ccccc1` (H-[Bip]YTAKT(Bn)G-OH), the IC50 in data set [1] (cho) was above 1000 µM. Molecule `C[C@@H](O)[C@H](NC(=O)[C@H](Cc1ccc(O)cc1)NC(=O)[C@@H](N)Cc1ccc(C(=O)c2ccccc2)cc1)C(=O)N1CCC[C@H]1C(=O)N[C@@H](CCCCN)C(=O)N[C@H](C(=O)NCC(=O)O)[C@@H](C)OCc1ccccc1` (H-[Bpa]YTPKT(Bn)G-OH) yielded an IC50 in data set [1] of 239 µM. With `C[C@@H](O)[C@H](NC(=O)[C@H](CCCCN)NC(=O)[C@@H]1CCCN1C(=O)[C@@H](NC(=O)[C@H](Cc1ccc(O)cc1)NC(=O)[C@@H](N)Cc1ccc(-c2ccccc2)cc1)[C@@H](C)O)C(=O)O` (H-[Bip]YTPKT-OH), the IC50 is above 1000 µM in data set [5] (cho), 19 µM in data set [1] (cho), above 1000 µM in [9] and above 1000 µM in data set [8] (cho).

Molecule `COC(=O)[C@H]1[C@@H](OC(=O)c2ccccc2)C[C@@H]2CC[C@H]1N2C` [COCAINE] yielded an Activity in the data set with Mus musculus [10] of 194 s. For the molecule `C[C@@H](O)[C@H](NC(=O)[C@H](CCCCN)NC(=O)[C@@H]1CCCN1C(=O)[C@@H](NC(=O)[C@H](Cc1ccc(O)cc1)NC(=O)[C@H](Cc1ccccc1)NC(=O)[C@@H](N)Cc1ccccc1)[C@@H](C)O)C(=O)O` (H-FFYTPKT-OH), in data set [1], the IC50 was above 1000 µM. In [1] (cho), `C[C@@H](O)[C@H](NC(=O)[C@H](CCCCN)NC(=O)[C@@H]1CCCN1C(=O)[C@@H](NC(=O)[C@H](Cc1ccc(O)cc1)NC(=O)[C@@H](N)Cc1ccc(-c2ccccc2)cc1)[C@@H](C)OCc1ccccc1)C(=O)NCC(=O)O` (H-[Bip]YT(Bn)PKTG-OH) returned an IC50 of 20 µM. With `C[C@H](NC(=O)[C@@H](N)Cc1ccc(-c2ccccc2)cc1)C(=O)N[C@H](C(=O)N1CCC[C@H]1C(=O)N[C@@H](CCCCN)C(=O)N[C@H](C(=O)NCC(=O)O)[C@@H](C)OCc1ccccc1)[C@@H](C)O` (H-[Bip]ATPKT(Bn)G-OH), the IC50 in data set [1] (cho) was determined as 173 µM.

With `C[C@@H](O)[C@H](NC(=O)[C@H](Cc1ccc(O)cc1)NC(=O)[C@@H](N)Cc1ccc2ccccc2c1)C(=O)N1CCC[C@H]1C(=O)N[C@@H](CCCCN)C(=O)N[C@H](C(=O)NCC(=O)O)[C@@H](C)OCc1ccccc1` (H-[2Nal]YTPKT(Bn)G-OH), in data set [1], the IC50 was 184 µM. In the case of `C[C@H](NC(=O)[C@@H](NC(=O)[C@H](Cc1ccc(O)cc1)NC(=O)[C@@H](N)Cc1ccc(-c2ccccc2)cc1)[C@@H](C)O)C(=O)N[C@H](C(=O)NCC(=O)O)[C@@H](C)OCc1ccccc1` (H-[Bip]YTAT(Bn)G-OH) [listing 1 of 2 here], in data set [1] (cho), the IC50 is above 1000 µM. `C[C@H](NC(=O)[C@H](Cc1ccc(O)cc1)NC(=O)[C@@H](N)Cc1ccc(-c2ccccc2)cc1)C(=O)N1CCC[C@H]1C(=O)N[C@@H](CCCCN)C(=O)N[C@H](C(=O)NCC(=O)O)[C@@H](C)OCc1ccccc1` (H-[Bip]YAPKT(Bn)G-OH) showed a half-inhibitory concentration (IC50) in data set [1] (cho) of 11 µM. Same read-out and setting: the same measure for `C[C@@H](O)[C@H](NC(=O)[C@H](Cc1ccc(O)cc1)NC(=O)[C@@H](N)Cc1ccc(-c2ccccc2)cc1)C(=O)N1CCC[C@H]1C(=O)N[C@@H](CCCCN)C(=O)N[C@H](C(=O)NCC(=O)O)[C@@H](C)OCc1ccccc1` (H-[Bip]YTPKT(Bn)G-OH): 1.8 µM. In the case of `C[C@H](NC(=O)[C@@H](NC(=O)[C@H](Cc1ccc(O)cc1)NC(=O)[C@@H](N)Cc1ccc(-c2ccccc2)cc1)[C@@H](C)O)C(=O)N[C@H](C(=O)NCC(=O)O)[C@@H](C)OCc1ccccc1` (H-[Bip]YTAT(Bn)G-OH) [listing 2 of 2 here], the Activity in the data set with Mus musculus [2] is reported as -14 s; with Mus musculus [3], 209 s; with Mus musculus [4], 200 s.

B1: Sodium-dependent dopamine transporter (Rattus norvegicus), P23977 (protein)
chain: MSKSKCSVGPMSSVVAPAKESNAVGPREVELILVKEQNGVQLTNSTLINPPQTPVEAQERETWSKKIDFLLSVIGFAVDLANVWRFPYLCYKNGGGAFLVPYLLFMVIAGMPLFYMELALGQFNREGAAGVWKICPVLKGVGFTVILISFYVGFFYNVIIAWALHYFFSSFTMDLPWIHCNNTWNSPNCSDAHASNSSDGLGLNDTFGTTPAAEYFERGVLHLHQSRGIDDLGPPRWQLTACLVLVIVLLYFSLWKGVKTSGKVVWITATMPYVVLTALLLRGVTLPGAMDGIRAYLSVDFYRLCEASVWIDAATQVCFSLGVGFGVLIAFSSYNKFTNNCYRDAIITTSINSLTSFSSGFVVFSFLGYMAQKHNVPIRDVATDGPGLIFIIYPEAIATLPLSSAWAAVFFLMLLTLGIDSAMGGMESVITGLVDEFQLLHRHRELFTLGIVLATFLLSLFCVTNGGIYVFTLLDHFAAGTSILFGVLIEAIGVAWFYGVQQFSDDIKQMTGQRPNLYWRLCWKLVSPCFLLYVVVVSIVTFRPPHYGAYIFPDWANALGWIIATSSMAMVPIYATYKFCSLPGSFREKLAYAITPEKDHQLVDRGEVRQFTLRHWLLL
Broadly, the Km is the concentration of substrate that gives half-maximal velocity. Regarding B1, the figures for the Km in [11] and in [12] were 2.42 µM and 3.6 µM, respectively.
